Several values for one entry are separate records, joined by “and”; a condition that tells them apart may be missing. Equal values may be shown once. Read-outs that look alike come from different tables or passages of the source.
Key:
[1] = molecular target: T1, EP4R (Homo sapiens, UniProt P35408); assay: biochemical; type: binding
T1 construct: Tango fusion cassette (only 'tango' is printed); expressed in transfected cells; host or cells: HTLA cells (tTA-dependent luciferase reporter, β-arrestin2-TEV fusion)

[2] = molecular target: T1, EP4R; assay: PRESTO-Tango β-arrestin2 recruitment assay; type: cell-based; settings: for antagonist activity at EP4R: concentration-response
[3] = molecular target: wild-type EP4R (Homo sapiens, UniProt P35408); assay: cell-based
[4] = molecular target: T1, EP4R; assay: cell-based
[5] = molecular target: T2, Thromboxane A2 (TP) receptor (Homo sapiens, UniProt P21731); assay: Functional cAMP production assay, TP receptor; type: cell-based; settings: agonist alone, replicate columns
T2 sequence (P21731 1-343): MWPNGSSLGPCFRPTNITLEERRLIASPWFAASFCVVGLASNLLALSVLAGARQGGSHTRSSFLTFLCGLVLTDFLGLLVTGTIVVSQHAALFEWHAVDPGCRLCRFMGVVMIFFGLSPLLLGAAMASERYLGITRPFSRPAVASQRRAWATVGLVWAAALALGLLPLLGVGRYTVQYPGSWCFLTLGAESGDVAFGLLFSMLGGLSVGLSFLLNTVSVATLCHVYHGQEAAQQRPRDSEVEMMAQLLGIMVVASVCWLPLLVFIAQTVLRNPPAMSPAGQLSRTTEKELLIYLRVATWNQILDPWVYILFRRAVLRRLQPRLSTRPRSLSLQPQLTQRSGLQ

[6] = molecular target: T3, prostaglandin D2 (PGD2) receptor (Homo sapiens, UniProt Q9Y5Y4); assay: Functional cAMP production assay, PGD2 receptor; type: cell-based; settings: replicate values
T3 sequence (Q9Y5Y4 1-395): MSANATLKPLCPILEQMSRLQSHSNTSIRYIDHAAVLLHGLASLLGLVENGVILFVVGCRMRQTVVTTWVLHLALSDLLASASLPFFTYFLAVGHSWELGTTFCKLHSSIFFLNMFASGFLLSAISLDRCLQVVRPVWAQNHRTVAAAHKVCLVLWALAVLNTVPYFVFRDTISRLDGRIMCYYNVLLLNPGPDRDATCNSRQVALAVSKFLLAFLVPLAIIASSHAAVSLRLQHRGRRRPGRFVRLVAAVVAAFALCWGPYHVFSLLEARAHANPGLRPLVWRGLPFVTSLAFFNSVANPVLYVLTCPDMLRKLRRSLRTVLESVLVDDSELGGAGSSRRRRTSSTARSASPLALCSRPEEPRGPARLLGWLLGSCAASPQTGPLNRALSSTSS

[7] = calculated using the Cheng Prusoff equation, read-out: Arrestin-BRET Ki*
[8] = 10 µM compound vs 10 nM 3H-PGE2, read-out: % displacement of 3HPGE2 at 10 µM
[9] = calculated using the Cheng Prusoff equation, read-out: PRESTO-Tango Ki*
[10] = read-out: % displacement of 3HPGE2 at 10 µM, 10 µM compound vs 10 nM 3H-PGE2
[11] = PRESTO-Tango IC50 (nM), antagonist mode, EC80 of PGE2
[12] = PRESTO-Tango -logIC50, antagonist mode, EC80 of PGE2

T1 sequence (P35408 whole entry, the tested form may be a part): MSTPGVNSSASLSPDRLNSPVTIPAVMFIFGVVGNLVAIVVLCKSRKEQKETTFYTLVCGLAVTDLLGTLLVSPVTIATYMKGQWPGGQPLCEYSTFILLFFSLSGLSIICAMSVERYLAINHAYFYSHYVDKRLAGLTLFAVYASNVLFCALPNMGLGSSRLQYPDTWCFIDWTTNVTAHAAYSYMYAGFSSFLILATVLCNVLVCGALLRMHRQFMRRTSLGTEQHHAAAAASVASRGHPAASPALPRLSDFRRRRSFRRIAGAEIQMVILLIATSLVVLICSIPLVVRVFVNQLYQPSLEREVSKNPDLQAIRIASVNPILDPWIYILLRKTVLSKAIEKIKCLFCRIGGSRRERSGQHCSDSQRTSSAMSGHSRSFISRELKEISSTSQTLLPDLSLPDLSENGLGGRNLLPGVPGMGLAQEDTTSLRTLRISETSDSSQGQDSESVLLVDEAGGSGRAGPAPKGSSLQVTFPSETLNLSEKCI
Chain of wild-type EP4R (P35408 whole entry): as the sequence (P35408 whole entry, the tested form may be a part) above

## Cc1cc(C(=O)N[C@H]2CC[C@H](C(=O)O)CCC2(F)F)c(C)n1-c1ccccc1 [Compound 83, CC1=CC(C(=O)N[C@H]2CC[C@@H](CCC2(F)F)C(=O)O)=C(C)N1C=3C=CC=CC3]
[1]
  Ki: > 10000 nM
[2]
  PRESTO-Tango -logIC50: unstable
[2]; PRESTO-Tango IC50 (nM)
  IC50: > 10000 nM
[3]
  IC50: 3390 nM
  Ki: 678 nM
[4]
  Kb: > 10000 nM

## CC(C(=O)Nc1cc(C#N)ccc1CCCC(=O)O)c1ccc(F)c2ccccc12 (stereo not drawn) [ONO-AE3-208, reference compound]
[3]; [7]
  Ki: 1.3 nM

## O=C(O)C1CCC2(CC1)CC(Nc1ncnc3[nH]c4cc(F)ccc4c13)C2 (stereo not drawn) [Compound 134, OC(=O)C1CCC2(CC(C2)NC=3N=CN=C4NC=5C=C(F)C=CC5C34)CC1]
[2]; PRESTO-Tango IC50 (nM)
  IC50: 203 nM
[2]; PRESTO-Tango Ki* (nM)
  Ki: 41 nM
[3]
  IC50: 155 nM
  Ki: 31 nM

## CCCCC[C@H](O)/C=C/[C@@H]1[C@@H](C/C=C\CCCC(=O)O)[C@H]2CO[C@@H]1C2 [Compound U46619]
[5]; Log[Drug] -4.52
  Thromboxane Receptor response, U46619 alone: 101.694 and 84.622 and 99.9733
[5]; Log[Drug] -5
  Thromboxane Receptor response, U46619 alone: 98.3839 and 68.3538 and 108.147 and 95.8866 and 103.858 and 102.233 and 110.843 and 96.4513 and 100.005 and 98.4577 and 94.7206 and 109.077
[5]; Log[Drug] -5.52
  Thromboxane Receptor response, U46619 alone: 90.8596 and 73.8682 and 91.1581 and 74.0123 and 88.5137 and 87.193 and 76.6016 and 83.785 and 87.9816 and 86.9707 and 87.4905
[5]; Log[Drug] -6
  Thromboxane Receptor response, U46619 alone: 73.0479 and 61.333 and 83.5479 and 72.2309 and 75.4547 and 85.5682 and 93.0317 and 74.9476 and 75.1314 and 67.4734 and 82.2643
[5]; Log[Drug] -6.52
  Thromboxane Receptor response, U46619 alone: 53.1945 and 46.9117 and 56.4473 and 51.2866 and 54.1589 and 49.4671 and 53.794 and 49.5996 and 46.1382 and 46.7815 and 52.9845 and 63.6908
[5]; Log[Drug] -7
  Thromboxane Receptor response, U46619 alone: 26.7811 (2×) and 28.7836 and 26.1246 and 27.7368 and 28.2234 and 28.3716 and 27.3608 and 24.4507 and 37.3892
[5]; Log[Drug] -7.52
  Thromboxane Receptor response, U46619 alone: 6.98 and 11.6509 and 14.4408 and 11.9391 and 9.265 and 14.6944 and 12.5961 and 11.3627
[5]; Log[Drug] -8
  Thromboxane Receptor response, U46619 alone: 3.852 and 4.407 and 5.259 and 6.346 and 4.095 and 3.487 and 3.973 and 12.9637 and 7.1283 and 8.507 and 7.772 and 8.062
[5]; Log[Drug] -8.52
  Thromboxane Receptor response, U46619 alone: 0.6979 and 0.4256 and 1.264 and 1.489 and 0.4372 and 0.7674 and -0.6982 and -0.1162 and -0.5757 and -0.4127
[5]; Log[Drug] -9
  Thromboxane Receptor response, U46619 alone: 1.749 and 1.539 and -0.4127 and -0.8139 and 0.03755 and 0.2374 and 1.155 and 2.074 and -0.008962 and 0.4505 and -0.2293

## O=C(O)C1CCC2(CC1)CC(Nc1ncnc3sc4c(c13)CCCC4)C2 (stereo not drawn) [Compound 71, OC(=O)C1CCC2(CC(C2)NC=3N=CN=C4SC=5CCCCC5C34)CC1]
[1]; [8]
  inhibition at 10 µM: 62.9%
[2]; PRESTO-Tango IC50 (nM)
  IC50: 850 nM
[2]; [9]
  Ki: 170 nM
[2]
  antagonist activity at EP4R: dose-dependent antagonist activity
[3]
  IC50: 899 nM
  ligand efficiency: 0.35 kcal/mol per “heavy” atom
[3]; [7]
  Ki: 180 nM

## O=C(O)CC1CN(C(=O)[C@@H]2C[C@]23CCOc2ccccc23)c2ccccc21 (stereo partly drawn) [Compound 65, OC(=O)CC1CN(C(=O)[C@@H]2C[C@@]32CCOC=4C=CC=CC43)C=5C=CC=CC15]
[1]; read-out: 3H-PGE2 Displacement by 10 µM of docking hits (Displacment), 10 µM compound, individual replicate values (Figure 1B source data)
  inhibition at 10 µM: 23.4%
[1]; [10]
  inhibition at 10 µM: 24%
[2]; [11]
  IC50: 5160 nM
[2]; PRESTO-Tango Ki* (nM), calculated using the Cheng Prusoff equation
  Ki: 1030 nM
[2]
  antagonist activity at EP4R: dose-dependent antagonist activity

## N#Cc1ccc(OCc2cccc(C(=O)Nc3cccc(-c4nnn[nH]4)c3)c2)cc1 [Compound 70, O=C(NC=1C=CC=C(C1)C2=NN=NN2)C=3C=CC=C(COC=4C=CC(C#N)=CC4)C3]
[1]; [10]
  inhibition at 10 µM: 56.2%
[2]; PRESTO-Tango -logIC50
  IC50: 14500 nM
[2]; PRESTO-Tango IC50 (nM)
  IC50: > 10000 nM
[2]
  antagonist activity at EP4R: dose-dependent antagonist activity

## O=C(O)C1CCC2(CC1)CC(Nc1ncnc3[nH]c4ccc(Br)cc4c13)C2 (stereo not drawn) [Compound 135, OC(=O)C1CCC2(CC(C2)NC=3N=CN=C4NC=5C=CC(Br)=CC5C34)CC1]
[2]; PRESTO-Tango IC50 (nM)
  IC50: 91.5 nM
[2]; PRESTO-Tango Ki* (nM)
  Ki: 18.3 nM
[3]
  IC50: 136 nM
  Ki: 27.2 nM

## Cn1c2ccccc2c2c(NC3CC4(CCC(C(=O)O)CC4)C3)ncnc21 (stereo not drawn) [Compound 75, CN1C=2C=CC=CC2C=3C(NC4CC5(C4)CCC(CC5)C(=O)O)=NC=NC13]
[2]; PRESTO-Tango IC50 (nM)
  IC50: 607 nM
[2]; PRESTO-Tango Ki* (nM)
  Ki: 121 nM
[3]
  IC50: 813 nM
  Ki: 163 nM
  reduced potency of analog: up to 10 fold

## O=C(O)C1CCC2(CC1)CC(Nc1ncnc3[nH]c4ccccc4c13)C2 (stereo not drawn) [Compound 73, OC(=O)C1CCC2(CC(C2)NC=3N=CN=C4NC=5C=CC=CC5C34)CC1]
[2]; PRESTO-Tango IC50 (nM)
  IC50: 548 nM
[2]; [9]
  Ki: 110 nM
[3]
  IC50: 146 nM
  ligand efficiency: 0.40 kcal/mol per “heavy” atom
[3]; [7]
  Ki: 29 nM

## O=C(O)Cc1ccc(NC(=O)c2cc(C3CC3)nc3ccc(F)cc23)cc1 [Compound 68, OC(=O)CC=1C=CC(NC(=O)C=2C=C(N=C3C=CC(F)=CC23)C4CC4)=CC1]
[1]; [10]
  inhibition at 10 µM: 31.8%
[2]; [12]
  IC50: 11000 nM
[2]; [11]
  IC50: > 10000 nM
[2]
  antagonist activity at EP4R: dose-dependent antagonist activity

## O=C(N[C@@H]1CC[C@@H](C(=O)O)CCC1(F)F)c1c[nH]c(-c2ccccc2)c1 [Compound 80, OC(=O)[C@@H]1CC[C@@H](NC(=O)C2=CNC(=C2)C=3C=CC=CC3)C(F)(F)CC1]
[1]
  Ki: 1380 nM
[2]; [12]
  IC50: 18600 nM
[2]; [11]
  IC50: > 10000 nM

## CCCCC[C@H](O)/C=C/[C@H]1C(=O)C[C@H](O)[C@@H]1C/C=C\CCCC(=O)O [PGD2]
[6]; Log[Drug] -7
  Prostaglandin D2 receptor response, drug alone: 0.6033 and 0.644 and 0.6961 and 0.6919
[6]; Log[Drug] -7.52
  Prostaglandin D2 receptor response, drug alone: 0.797 and 0.93 and 0.9088 and 0.9243 and 0.8431 and 0.8125 and 0.8754 and 0.8197 and 0.9698 and 0.7088 and 0.7525 and 0.7962
[6]; Log[Drug] -8
  Prostaglandin D2 receptor response, drug alone: 0.9354 and 1 and 1.006 and 1.122 and 0.9207 and 0.9404 and 0.8901 and 0.9489 and 0.8787 and 1.018 and 0.7261 and 1.1394
[6]; Log[Drug] -8.52
  Prostaglandin D2 receptor response, drug alone: 0.9328 and 0.9897 and 1.022 and 0.9062 and 0.7756 and 1.181 and 0.8387 and 1.0826 and 1.099 and 1.025 and 0.9559 and 0.8192
[6]; Log[Drug] -9
  Prostaglandin D2 receptor response, drug alone: 1.112 and 0.9671 and 1.1328 and 0.9787 and 1.031 and 1.15 and 0.9594 and 0.9527 and 0.952 and 0.9619 and 1.007 and 0.8917
[6]; Log[Drug] -9.52
  Prostaglandin D2 receptor response, drug alone: 0.8441 and 1.142 and 1.077 and 0.9738 and 0.9345 and 0.9535 and 0.9143 and 1.094 and 0.8709 and 1.005 and 0.9652 and 0.9465
[6]; Log[Drug] -10
  Prostaglandin D2 receptor response, drug alone: 1.003 (2×) and 1.01 (2×) and 1.029 and 0.9872 and 0.9954 and 1.0644 and 0.8654 and 0.9098 and 1.022 and 1.061
[6]; Log[Drug] -10.52
  Prostaglandin D2 receptor response, drug alone: 0.9812 and 1.108 and 1.015 and 0.9787 and 0.8969 and 1.051 and 1.01 and 0.8703 and 1.02 and 1.075 and 0.9632 and 0.9209
[6]; Log[Drug] -11
  Prostaglandin D2 receptor response, drug alone: 0.9785 and 0.8795 and 0.9671 and 1.005 and 0.997 and 1.114 and 0.9736 and 1.021 and 1.027 and 1.076 and 1.172 and 1.01

## Cc1cc(C(=O)NC2CCCC(C(=O)O)CC2)c(C)n1-c1ccc2c(c1)OCCO2 (stereo not drawn) [Compound 81, CC1=CC(C(=O)NC2CCCC(CC2)C(=O)O)=C(C)N1C=3C=CC=4OCCOC4C3]
[1]
  Ki: 1170 nM
[2]; [12]
  IC50: 35500 nM
[2]; [11]
  IC50: > 10000 nM

## O=C(O)C1CCC2(CC1)CC(Nc1ncnc3sc4ccccc4c13)C2 (stereo not drawn) [Compound 72, OC(=O)C1CCC2(CC(C2)NC=3N=CN=C4SC=5C=CC=CC5C34)CC1]
[2]; PRESTO-Tango IC50 (nM)
  IC50: 444 nM
[2]; [9]
  Ki: 89 nM
[3]
  IC50: 514 nM
[3]; [7]
  Ki: 103 nM

## O=C(NC1CCCC(C(=O)O)CC1)c1csc(C2CCCCC2)c1 (stereo not drawn) [Compound 66, OC(=O)C1CCCC(CC1)NC(=O)C2=CSC(=C2)C3CCCCC3]
[1]; [8]
  inhibition at 10 µM: 25.6%
[2]; PRESTO-Tango -logIC50
  IC50: 3720 nM
[2]; PRESTO-Tango IC50 (nM)
  IC50: 3760 nM
[2]; [9]
  Ki: 752 nM
[2]
  antagonist activity at EP4R: dose-dependent antagonist activity
[3]
  IC50: 4050 nM
[3]; [7]
  Ki: 810 nM
